In patent publication US11591355B2 (Peloton Therapeutics, Inc., priority 2017, dated 2023):

Key:
[1] = target: T1, CD73 on U138 human neuroglioma cells (Homo sapiens, UniProt P21589); experiment: CD73 Cell-Based Assay; conditions: U138 cells, AMP substrate, 2 hours at 37° C., inorganic phosphate by malachite green
T1 construct: U138 cells were obtained from ATCC and cultured in DMEM with 10% FBS; host or cells: U138 human neuroglioma cells
T1 sequence (P21589 27-549): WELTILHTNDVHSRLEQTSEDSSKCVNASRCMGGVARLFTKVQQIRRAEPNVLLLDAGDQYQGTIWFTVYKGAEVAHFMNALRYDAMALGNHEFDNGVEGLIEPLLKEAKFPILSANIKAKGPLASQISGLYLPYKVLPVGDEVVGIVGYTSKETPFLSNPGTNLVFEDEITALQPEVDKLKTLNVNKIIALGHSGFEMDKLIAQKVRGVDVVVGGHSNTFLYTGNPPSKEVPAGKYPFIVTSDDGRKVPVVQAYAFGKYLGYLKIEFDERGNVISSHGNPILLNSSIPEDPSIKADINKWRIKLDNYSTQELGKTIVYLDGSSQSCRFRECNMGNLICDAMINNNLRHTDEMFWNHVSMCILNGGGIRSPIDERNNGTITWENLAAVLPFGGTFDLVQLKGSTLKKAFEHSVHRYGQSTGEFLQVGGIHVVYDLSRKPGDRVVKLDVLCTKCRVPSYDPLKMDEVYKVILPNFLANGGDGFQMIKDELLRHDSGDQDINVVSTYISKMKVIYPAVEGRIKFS
Method in brief: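 Whole U138 cells washed free of phosphate were incubated with 200 μM AMP (mixture concentration before equal-volume addition) plus compound in HEPES-buffered saline, pH 7.4, for 2 h at 37 °C, 5% CO2. Adenosine-forming activity read as inorganic phosphate released into supernatant by malachite green.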

[2] = target: T2, Human CD73 (Homo sapiens, UniProt P21589); experiment: CD73 Enzyme Assay; type: biochemical; conditions: 0.25 nM hCD73, 25 μM AMP, kinetic read at 360 nm; read-out: CD73 Enzyme Assay IC50
T2 construct: purchased R&D Systems; host or cells: CHO cells
T2 sequence (P21589 27-549): T1 sequence (P21589 27-549)

| Structure (SMILES) | IC50 [1] | IC50 [2] |
| --- | --- | --- |
| C[C@H](c1ccccc1)N(C)c1nc(Cl)nc2c1ccn2[C@@H]1O[C@H](CS(=O)(=O)CP(=O)(O)O)[C@@H](O)[C@H]1O [Compound 157, [(2S,3S,4R,5R)-5-[2-chloro-4-[methyl-[(1R)-1-phenylethyl]-amino]pyrrolo[2,3-d]-pyrimidin-7-yl]-3,4-dihydroxy-tetrahydro-furan-2-yl]methyl-sulfonylmethylphos-phonic acid] | < 10 nM | < 10 nM |
| N#Cc1nc(N2CC3CCCC3C2)c2ccn([C@@H]3O[C@H](CS(=O)(=O)CP(=O)(O)O)[C@@H](O)[C@H]3O)c2n1 (stereo partly drawn) [Compound 158, [(2S,3S,4R,5R)-5-[4-(3,3a,4,5,6,6a-hexa-hydro-1H-cyclopenta-[c]pyrrol-2-yl)-2-cyano-pyrrolo[2,3-d]-pyrimidin-7-yl]-3,4-dihydroxy-tetrahydro-furan-2-yl]methyl-sulfonylmethylphos-phonic acid] | < 10 nM | < 10 nM |
| O=P(O)(O)CS(=O)(=O)C[C@H]1O[C@@H](n2ccc3c(NC4CC5CC5C4)nc(Cl)nc32)[C@H](O)[C@@H]1O (stereo partly drawn) [Compound 159, [(2S,3S,4R,5R)-5-[4-(3-bicyclo[3.1.0]-hexanylamino)-2-chloro-pyrrolo[2,3-d]-pyrimidin-7-yl]-3,4-dihydroxy-tetrahydro-furan-2-yl]methyl-sulfonylmethylphos-phonic acid] | < 10 nM | < 10 nM |
| CC(C)OP(=O)(O)CS(=O)(=O)C[C@H]1O[C@@H](n2ccc3c(NC4CCCC4)nc(Cl)nc32)[C@H](O)[C@@H]1O [Compound 160, [(2S,3S,4R,5R)-5-[2-chloro-4-(cyclo-pentylamino)pyrrolo-[2,3-d]pyrimidin-7-yl]-3,4-dihydroxy-tetrahydrofuran-2-yl]methylsulfonyl-methyl-isopropoxy-phosphinic acid] | 100 to 1000 nM | 100 to 1000 nM |
| CC(C)(C)C(=O)OCOP(=O)(O)CS(=O)(=O)C[C@H]1O[C@@H](n2ccc3c(NC4CCCC4)nc(Cl)nc32)[C@H](O)[C@@H]1O [Compound 161, [(2S,3S,4R,5R)-5-[2-chloro-4-(cyclopentyl-amino)pyrrolo[2,3-d]-pyrimidin-7-yl]-3,4-dihydroxy-tetrahydro-furan-2-yl]methyl-sulfonylmethyl-(2,2-dimethylpropanoyl-oxymethoxy)phos-phinic acid] | < 10 nM | < 10 nM |
| CC(C)Nc1nc(Cl)nc2c1ccn2[C@@H]1O[C@H](CS(=O)(=O)CP(=O)(O)O)[C@@H](O)[C@H]1O [Compound 162, [(2S,3S,4R,5R)-5-[2-chloro-4-(isopropyl-amino)pyrrolo[2,3-d]-pyrimidin-7-yl]-3,4-dihydroxy-tetrahydro-furan-2-yl]methyl-sulfonylmethylphos-phonic acid] | 10 to 100 nM | 10 to 100 nM |
| O=P(O)(O)CS(=O)(=O)C[C@H]1O[C@@H](n2ccc3c(N4CCCC4)nc(Cl)nc32)[C@H](O)[C@@H]1O [Compound 163, [(2S,3S,4R,5R)-5-(2-chloro-4-pyrrolidin-1-yl-pyrrolo[2,3-d]-pyrimidin-7-yl)-3,4-dihydroxy-tetrahydro-furan-2-yl]methyl-sulfonylmethylphos-phonic acid] | 10 to 100 nM | 10 to 100 nM |
| O=P(O)(O)CS(=O)(=O)C[C@H]1O[C@@H](n2ccc3c(N4CCC(F)(F)C4)nc(Cl)nc32)[C@H](O)[C@@H]1O [Compound 164, [(2S,3S,4R,5R)-5-[2-chloro-4-(3,3-difluoro-pyrrolidin-1-yl)-pyrrolo[2,3-d]-pyrimidin-7-yl]-3,4-dihydroxy-tetrahydro-furan-2-yl]methyl-sulfonylmethylphos-phonic acid] | < 10 nM | < 10 nM |
| C[C@@H](Nc1nc(Cl)nc2c1ccn2[C@@H]1O[C@H](CS(=O)(=O)CP(=O)(O)O)[C@@H](O)[C@H]1O)c1ccc(F)cc1 [Compound 167, [(2S,3S,4R,5R)-5-[2-chloro-4-[[(1R)-1-(4-fluorophenyl)ethyl]-amino]pyrrolo[2,3-d]-pyrimidin-7-yl]-3,4-dihydroxy-tetrahydro-furan-2-yl]methyl-sulfonylmethylphos-phonic acid] | < 10 nM | < 10 nM |
| C[C@@H](Nc1nc(Cl)nc2c1ccn2[C@@H]1O[C@H](CS(=O)(=O)CP(=O)(O)O)[C@@H](O)[C@H]1O)c1ccccc1F [Compound 168, [(2S,3S,4R,5R)-5-[2-chloro-4-[[(1R)-1-(2-fluorophenyl)ethyl]-amino]pyrrolo[2,3-d]-pyrimidin-7-yl]-3,4-dihydroxy-tetrahydro-furan-2-yl]methyl-sulfonylmethylphos-phonic acid] | < 10 nM | < 10 nM |
| Cc1ccc([C@@H](C)Nc2nc(Cl)nc3c2ccn3[C@@H]2O[C@H](CS(=O)(=O)CP(=O)(O)O)[C@@H](O)[C@H]2O)cc1 [Compound 169, [(2S,3S,4R,5R)-5-[2-chloro-4-[[(1R)-1-(p-tolyl)ethyl]amino]-pyrrolo[2,3-d]-pyrimidin-7-yl]-3,4-dihydroxy-tetrahydro-furan-2-yl]methyl-sulfonylmethylphos-phonic acid] | < 10 nM | < 10 nM |
| Cc1ccc([C@H](C)Nc2nc(Cl)nc3c2ccn3[C@@H]2O[C@H](CS(=O)(=O)CP(=O)(O)O)[C@@H](O)[C@H]2O)cc1 [Compound 170, [(2S,3S,4R,5R)-5-[2-chloro-4-[[(1S)-1-(p-tolyl)ethyl]amino]-pyrrolo[2,3-d]-pyrimidin-7-yl]-3,4-dihydroxy-tetrahydro-furan-2-yl]methyl-sulfonylmethylphos-phonic acid] | < 10 nM | < 10 nM |
| O=P(O)(O)CS(=O)(=O)C[C@H]1O[C@@H](n2ccc3c(NC4CCC(F)(F)C4)nc(Cl)nc32)[C@H](O)[C@@H]1O (stereo partly drawn) [Compound 171, [(2S,3S,4R,5R)-5-[2-chloro-4-[(3,3-difluoro-cyclopentyl)amino]-pyrrolo[2,3-d]-pyrimidin-7-yl]-3,4-dihydroxy-tetrahydro-furan-2-yl]methyl-sulfonylmethylphos-phonic acid] | < 10 nM | < 10 nM |
| O=P(O)(O)CS(=O)(=O)C[C@H]1O[C@@H](n2ccc3c(NC4CCC4)nc(Cl)nc32)[C@H](O)[C@@H]1O [Compound 172, [(2S,3S,4R,5R)-5-[2-chloro-4-(cyclobutyl-amino)pyrrolo[2,3-d]-pyrimidin-7-yl]-3,4-dihydroxy-tetrahydro-furan-2-yl]methyl-sulfonylmethylphos-phonic acid] | < 10 nM | < 10 nM |
| O=P(O)(O)CS(=O)(=O)C[C@H]1O[C@@H](n2ccc3c(NC4CC(F)(F)C4)nc(Cl)nc32)[C@H](O)[C@@H]1O [Compound 173, [(2S,3S,4R,5R)-5-[2-chloro-4-[(3,3-difluoro-cyclobutyl)amino]-pyrrolo[2,3-d]-pyrimidin-7-yl]-3,4-dihydroxy-tetrahydro-furan-2-yl]methyl-sulfonylmethylphos-phonic acid] | < 10 nM | < 10 nM |
| O=P(O)(O)CS(=O)(=O)C[C@H]1O[C@@H](n2ccc3c(NC4CCCCC4)nc(Cl)nc32)[C@H](O)[C@@H]1O [Compound 174, [(2S,3S,4R,5R)-5-[2-chloro-4-(cyclohexyl-amino)pyrrolo[2,3-d]-pyrimidin-7-yl]-3,4-dihydroxy-tetrahydro-furan-2-yl]methyl-sulfonylmethylphos-phonic acid] | < 10 nM | < 10 nM |
| O=P(O)(O)CS(=O)(=O)C[C@H]1O[C@@H](n2ccc3c(N4CC5CC5C4)nc(Cl)nc32)[C@H](O)[C@@H]1O (stereo partly drawn) [Compound 175, [(2S,3S,4R,5R)-5-[4-(3-azabicyclo[3.1.0]-hexan-3-yl)-2-chloro-pyrrolo[2,3-d]-pyrimidin-7-yl]-3,4-dihydroxy-tetrahydro-furan-2-yl]methyl-sulfonylmethylphos-phonic acid] | 10 to 100 nM | 10 to 100 nM |
| CCNc1nc(Cl)nc2c1ccn2[C@@H]1O[C@H](CS(=O)(=O)CP(=O)(O)O)[C@@H](O)[C@H]1O [Compound 176, [(2S,3S,4R,5R)-5-[2-chloro-4-(ethylamino)-pyrrolo[2,3-d]-pyrimidin-7-yl]-3,4-dihydroxy-tetrahydro-furan-2-yl]methyl-sulfonylmethylphos-phonic acid] | 10 to 100 nM | 10 to 100 nM |
| CC(C)N(C)c1nc(Cl)nc2c1ccn2[C@@H]1O[C@H](CS(=O)(=O)CP(=O)(O)O)[C@@H](O)[C@H]1O [Compound 177, [(2S,3S,4R,5R)-5-[2-chloro-4-[isopropyl-(methyl)amino]-pyrrolo[2,3-d]-pyrimidin-7-yl]-3,4-dihydroxy-tetrahydro-furan-2-yl]methyl-sulfonylmethylphos-phonic acid] | < 10 nM | < 10 nM |
| C[C@@H](Nc1nc(Cl)nc2c1ccn2[C@@H]1O[C@H](CS(=O)(=O)CP(=O)(O)O)[C@@H](O)[C@H]1O)c1ccc(F)cc1F [Compound 178, (((((2S,3S,4R,5R)-5-(2-chloro-4-(((R)-1-(2,4-difluorophenyl)ethyl)amino)-7H-pyrrolo[2,3-d]pyrimidin-7-yl)-3,4-dihydroxytetrahydrofuran-2-yl)methyl)sulfonyl)methyl)phosphonic acid] | < 10 nM | < 10 nM |
